Test results from patent publication US9624238B2, “4H-thieno[3,2-C]chromene-based inhibitors of Notum Pectinacetylesterase and methods of their use” (Lexicon Pharmaceuticals, Inc., priority 2011, dated 2017).
pEC50, pIC50: −log10 of the molar value.

Columns and labels:
[1] = biological target: T1, human notum pectinacetyltransferase (Homo sapiens, UniProt Q6P988); experiment: Binding assay (OPTS esterase substrate, fluorimetric); assay type: biochemical
T1 construct: made in house; unpurified conditioned medium used
T1 sequence (Q6P988 20-496): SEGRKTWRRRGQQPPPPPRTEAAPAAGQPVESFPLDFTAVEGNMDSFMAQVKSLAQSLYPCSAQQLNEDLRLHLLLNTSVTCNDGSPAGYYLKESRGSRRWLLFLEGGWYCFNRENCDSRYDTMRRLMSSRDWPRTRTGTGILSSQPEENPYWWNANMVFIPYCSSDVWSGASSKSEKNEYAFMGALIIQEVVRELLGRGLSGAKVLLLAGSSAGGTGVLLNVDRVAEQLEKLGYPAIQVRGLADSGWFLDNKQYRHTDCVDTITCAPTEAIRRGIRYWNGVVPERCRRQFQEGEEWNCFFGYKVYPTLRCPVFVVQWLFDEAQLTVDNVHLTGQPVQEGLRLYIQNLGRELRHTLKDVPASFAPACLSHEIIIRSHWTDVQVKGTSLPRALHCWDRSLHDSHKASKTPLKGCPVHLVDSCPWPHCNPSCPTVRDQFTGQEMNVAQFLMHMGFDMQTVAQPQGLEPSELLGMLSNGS
Experimental: Plasmid containing human notum pectinacetyltransferase in pcDNA3.1(+) vector was transfected into HEK (293 cells and clones were selecting by growing in presence of 400 ug/mL of G418. Condition media from these cells was used for the assay.

[2] = biological target: T1, human notum pectinacetyltransferase; experiment: Reporter assay (CellSensor LEF/TCF-bla FreeStyle 293F cells, Wnt3a and notum conditioned media); assay type: cell-based
Experimental: Plasmid containing human notum pectinacetyltransferase in pcDNA3.1(+) vector was transfected into HEK (293 cells and clones were selecting by growing in presence of 400 ug/mL of G418. The clone containing highest expression of human notum pectinacetyltransferase in the conditioned media was maintained for all future activity assays. L cells overexpressing and secreting Wnt3a into the conditioned media were purchased from ATCC.
The assay protocol was as follows. […] The cell growth medium consisted of DMEM with 10% Dialyzed FBS, 5 μg/ml Blasticidin (Invitrogen, R210-01), 0.1 mM NEAA, 25 mM HEPES and 1×GPS. Cells were then trypsinized by first rinsing with PBS, followed by addition of 5 mL of trypsin and incubation of plates at room temperature for two minutes. A total of 10 mL of assay media (Opti-MEM, plus 0.5% dialyzed FBS, 0.1 mM NEAA, 1 mM sodium pyruvate, 10 mM HEPES, 1×GPS) was then added per 15 cm plate. Cells were counted and suspended at 0.75 million cells per mL. […] After incubation of cells at 37° C. for 3 hours, 10 μL of 30 mM LiCl in assay medium was added per well, followed by incubation at 37° C. for another 3 hours. […] Ten μL of the Wnt3a/notum pentinacetyltransferase mixture was then transferred from Greiner plates to each well of the 384-well plates containing the CellSensor cells.

[3] = given as numeric bound above the legend's highest class
[4] = given as numeric bound above the legend's classes

SMILES	pIC50 [1, 3]	pIC50 ([1]; class symbols)	pEC50 [2, 4]	pEC50 ([2]; class symbols)
O=C(O)C1CCCN1C(=O)c1cc2c(s1)-c1ccccc1CC2 (stereo not shown)	< 5.70	–	–	–
O=C(O)C1CCCN1C(=O)c1cc2c(s1)-c1cc(F)cc(F)c1SC2 (stereo not shown)	–	> 5.70	–	–
O=C(O)C1C(O)CCN1C(=O)c1cc2c(s1)-c1c(F)ccc(F)c1SC2 (stereo not shown)	< 5.70	–	–	–
O=C(O)C1CCCN1C(=O)c1cc2c(s1)-c1c(F)ccc(F)c1SC2 (stereo not shown)	–	> 6.00	–	–
CC1(C)Oc2ccccc2-c2sc(C(=O)O)cc21	< 5.70	–	–	–
O=C(O)c1cc2c(s1)-c1ccoc1CC2	–	–	< 6.00	–
O=C(O)c1cc2c(s1)-c1scnc1CC2	–	–	< 6.00	–
CC1(C)Cc2cc(C(=O)O)sc2-c2ccccc21	–	> 6.00	–	–
COCCNC(=O)c1cc2c(s1)-c1ccc(OC)c(Cl)c1CC2	–	> 6.00	–	> 7.30
COc1ccc2c(c1Cl)CCc1cc(C(=O)NCCN3CCOCC3)sc1-2	–	> 6.00	–	> 7.30
Cc1ccc(Cl)c2c1-c1sc(C(=O)O)cc1CO2	–	> 6.00	–	> 7.30
COc1ccc2c(c1Cl)CCc1cc(C(=O)NCCC#N)sc1-2	–	> 6.00	–	> 7.30
COc1ccc2c(c1Cl)CCc1cc(C(=O)NCCO)sc1-2	–	> 6.00	–	> 7.30
N#Cc1cccc2c1OCc1cc(C(N)=O)sc1-2	–	> 6.00	–	> 7.30
COc1ccc2c(c1C#N)CCc1cc(C(N)=O)sc1-2	–	> 6.00	–	> 7.30
O=C(NCCO)c1cc2c(s1)-c1cccc(F)c1CC2	–	> 6.00	–	> 7.30
O=C(O)c1cc2c(s1)-c1ccc(F)c(F)c1OC2	–	> 6.00	–	> 7.30
Cc1ccc2c(c1C)CCc1cc(C(=O)O)sc1-2	–	> 6.00	–	–
Cc1ccc2c(c1C)CCc1cc(C(N)=O)sc1-2	–	> 6.00	–	–
CC1(C)Oc2c(F)cc(F)cc2-c2sc(C(=O)O)cc21	–	> 6.00	–	–
O=C(O)c1cc2c(s1)-c1cc(F)cc(F)c1CC2	–	> 6.00	–	> 7.30
Cc1ccc(C)c2c1OCc1cc(C(=O)O)sc1-2	–	> 5.70	–	> 7.30
CN(C)c1ccc2c(c1)CCc1cc(C(N)=O)sc1-2	–	> 5.70	–	–
O=C(O)c1cc2c(s1)-c1ccc(Cl)cc1OC2	–	> 7.00	–	> 7.30
O=C(O)c1cc2c(s1)-c1ccc(Cl)cc1CC2	–	> 6.00	–	–
O=C(O)c1cc2c(s1)-c1ccc(F)cc1CC2	–	> 6.00	–	> 7.30
Cc1c(F)ccc2c1OCc1cc(C(=O)O)sc1-2	–	> 6.00	–	> 7.30
Cc1ccc2c(c1)CCc1cc(C(=O)O)sc1-2	–	> 6.00	–	–

Other lines, results leading:

pIC50 [1, 3]	pIC50 ([1]; class symbols)	pEC50 [2, 4]	pEC50 ([2]; class symbols)	SMILES
–	> 7.30	–	> 7.30	COc1ccc2c(c1Cl)CCc1cc(C(N)=O)sc1-2
–	> 7.30	–	> 7.30	Cc1ccc(Cl)c2c1-c1sc(C(N)=O)cc1CO2
–	> 7.00	–	> 7.30	N#Cc1cccc2c1OCc1cc(C(=O)O)sc1-2
–	> 7.00	–	> 7.30	COc1ccc2c(c1F)CCc1cc(C(N)=O)sc1-2
–	> 7.00	–	> 7.30	COCCNC(=O)c1cc2c(s1)-c1cccc(F)c1CC2
–	> 7.00	–	> 7.30	O=C(NCc1ncco1)c1cc2c(s1)-c1cccc(F)c1CC2
–	> 7.30	–	> 7.30	NC(=O)c1cc2c(s1)-c1ccc(F)c(F)c1OC2
–	> 7.30	–	> 7.30	NC(=O)c1cc2c(s1)-c1ccc(F)c(F)c1CC2
–	> 7.30	–	> 7.30	NC(=O)c1cc2c(s1)-c1cc(F)cc(F)c1CC2
–	> 7.00	–	> 7.30	O=C(O)c1cc2c(s1)-c1c(Cl)ccc(Cl)c1OC2
–	> 7.30	–	–	NC(=O)c1cc2c(s1)-c1c(F)ccc(F)c1OC2
–	> 7.30	–	–	CC1(C)Cc2cc(C(N)=O)sc2-c2c(F)ccc(F)c21
–	> 7.00	–	> 7.30	Cc1ccc(C)c2c1OCc1cc(C(N)=O)sc1-2
–	> 7.00	–	> 7.30	NC(=O)c1cc2c(s1)-c1ccc(Cl)cc1OC2
–	> 7.30	–	> 7.30	NC(=O)c1cc2c(s1)-c1ccc(F)cc1CC2
–	> 7.30	–	> 7.30	Cc1c(F)ccc2c1OCc1cc(C(N)=O)sc1-2
–	> 7.30	–	> 7.30	NC(=O)c1cc2c(s1)-c1cc(F)c(F)cc1CC2
–	> 7.30	–	> 7.30	O=C(O)c1cc2c(s1)-c1cc(F)c(F)cc1CC2
